± gives the expanded uncertainty stated by the source.
Assay: mn = molality of the nth substance listed, in mol/kg
Conditions: Liquid, m2 = 0

O [water] + NC(N)=O
mass density (274.15 K, 101 kPa, Vibrating tube method): 999.899 ± 0.084 kg/m3
mass density (275.15 K, 101 kPa, Vibrating tube method): 999.94 ± 0.084 kg/m3
mass density (276.15 K, 101 kPa, Vibrating tube method): 999.964 ± 0.083 kg/m3
mass density (277.15 K, 101 kPa, Vibrating tube method): 999.972 ± 0.096 kg/m3
mass density (278.15 K, 101 kPa, Vibrating tube method): 999.964 ± 0.083 kg/m3
mass density (278.15 K, 10000 kPa, Constant-volume piezometry): 1004.78 ± 0.18 kg/m3
mass density (278.15 K, 25000 kPa, Constant-volume piezometry): 1011.88 ± 0.26 kg/m3
mass density (278.15 K, 50000 kPa, Constant-volume piezometry): 1023.2 ± 0.45 kg/m3
mass density (278.15 K, 75000 kPa, Constant-volume piezometry): 1033.92 ± 0.66 kg/m3
mass density (278.15 K, 100000 kPa, Constant-volume piezometry): 1044.08 ± 0.87 kg/m3
mass density (279.15 K, 101 kPa, Vibrating tube method): 999.94 ± 0.083 kg/m3
mass density (280.15 K, 101 kPa, Vibrating tube method): 999.901 ± 0.083 kg/m3
mass density (281.15 K, 101 kPa, Vibrating tube method): 999.848 ± 0.083 kg/m3
mass density (282.15 K, 101 kPa, Vibrating tube method): 999.781 ± 0.083 kg/m3
mass density (283.15 K, 101 kPa, Vibrating tube method): 999.699 ± 0.083 kg/m3
mass density (288.15 K, 10000 kPa, Constant-volume piezometry): 1003.66 ± 0.18 kg/m3
mass density (288.15 K, 25000 kPa, Constant-volume piezometry): 1010.42 ± 0.27 kg/m3
mass density (288.15 K, 50000 kPa, Constant-volume piezometry): 1021.21 ± 0.46 kg/m3
mass density (288.15 K, 75000 kPa, Constant-volume piezometry): 1031.47 ± 0.67 kg/m3
mass density (288.15 K, 100000 kPa, Constant-volume piezometry): 1041.23 ± 0.88 kg/m3
mass density (298.15 K, 10000 kPa, Constant-volume piezometry): 1001.46 ± 0.19 kg/m3
mass density (298.15 K, 25000 kPa, Constant-volume piezometry): 1007.99 ± 0.28 kg/m3
mass density (298.15 K, 50000 kPa, Constant-volume piezometry): 1018.44 ± 0.47 kg/m3
mass density (298.15 K, 75000 kPa, Constant-volume piezometry): 1028.38 ± 0.68 kg/m3
mass density (298.15 K, 100000 kPa, Constant-volume piezometry): 1037.86 ± 0.88 kg/m3
mass density (308.15 K, 10000 kPa, Constant-volume piezometry): 998.36 ± 0.2 kg/m3
mass density (308.15 K, 25000 kPa, Constant-volume piezometry): 1004.74 ± 0.29 kg/m3
mass density (308.15 K, 50000 kPa, Constant-volume piezometry): 1014.97 ± 0.48 kg/m3
mass density (308.15 K, 75000 kPa, Constant-volume piezometry): 1024.71 ± 0.69 kg/m3
mass density (308.15 K, 100000 kPa, Constant-volume piezometry): 1034.01 ± 0.89 kg/m3
mass density (323.15 K, 101 kPa, Vibrating tube method): 988.03 ± 0.087 kg/m3
mass density (323.15 K, 10000 kPa, Constant-volume piezometry): 992.3 ± 0.21 kg/m3
mass density (323.15 K, 25000 kPa, Constant-volume piezometry): 998.61 ± 0.3 kg/m3
mass density (323.15 K, 50000 kPa, Constant-volume piezometry): 1008.68 ± 0.5 kg/m3
mass density (323.15 K, 75000 kPa, Constant-volume piezometry): 1018.27 ± 0.7 kg/m3
mass density (323.15 K, 100000 kPa, Constant-volume piezometry): 1027.42 ± 0.91 kg/m3
mass density (333.15 K, 101 kPa, Vibrating tube method): 983.191 ± 0.087 kg/m3

Reference: the NIST ThermoML archive (doi:10.1016/j.jct.2018.01.024)
